Experimental data reported in US20170102375A1, “METHODS FOR DETERMINING THE EFFECTS OF COMPOUNDS ON JAK/STAT ACTIVITY” (Nodality, Inc., priority 2009, published 2017).
Read-outs that look alike come from different tables or passages of the source. One block for each compound: values may come before it.

Experiments:
[1] = system: p-STAT5 in T cells; test: multiparameter phosphoflow, p-STAT5 in T cells gated from 90% whole blood; format: cell-based
Method: A dose series of treatments is performed for each compound, ranging from doses as low as no compound, up to doses in the ranges of 1×10° nM, 1×10^1 nM, 1×10^2 nM, 1×10^3 nM, and 1×10^4 nM. Cell signaling is measured by multiparametric phosphoflow cytometry to assess p-Stat3, pERK, and p-Stat5 levels. The samples are gated on cell populations. This method may be used, for example, to measure JAK/STAT signaling activity in gated T cells based on levels p-Stat5 (See FIG. 12). The relationship between dosing and signaling activity can be used to calculate the IC50 for each compound (See, e.g. FIG. 12).

[2] = system: IL-27-induced p-Stat readout; test: IL-27-induced JAK/STAT signaling in AML patient cells, phosphoflow p-Stat1, p-Stat3, p-Stat5; format: cell-based, human
Method: (§1) Cells from three patients were stimulated with the cytokines IL-27 and G-CSF to determine whether these modulators could induce JAK/STAT pathway activation across cells from different AML patient donors. IL-27 has been reported to signal through JAK1, JAK2, and Tyk2, leading to the phosphorylation of Stat1, Stat3, and Stat5. G-CSF has been reported to signal through JAK2 and Tyk2 and leads to the phosphorylation of Stat3. […] One hour after incubation, the cells were stimulated with IL-27 and G-CSF. After stimulation cell signaling was measured by multiparametric phosphoflow cytometry to assess p-Stat1, p-Stat3 and p-Stat5 levels.
(§2) The samples were gated on cell populations. Incubation with fluorochrome-conjugated monoclonal antibodies that recognize lineage specific epitopes on the cell surface delineated at least 3 cell subpopulations in patient samples. […] Three cell subsets were examined: (1) CD34−/CD117med, (2) CD34+/CD117med, (3) CD34−/CD117−. “CD117” in FIG. 18 is the same as “ckit” in FIG. 19. “Med” indicates a medium amount of expression with respect to other cell subsets that express more or less CD117.

[3] = system: G-CSF-induced p-Stat readout; test: G-CSF-induced JAK/STAT signaling in AML patient cells, phosphoflow p-Stat1, p-Stat3, p-Stat5; format: cell-based, human
Method: as §1, §2

[4] = system: pAKT (S473); test: phosphoflow, evoked pAKT (S473) in B-cells gated from PBMC sample, IC50 from sub-sampled cells; format: cell-based; conditions: repeated 100 times, read-out: log10(IC50) (converted)
Method: In some embodiments, the invention provides tools for making robust measurements of very small subpopulations of cells. […] The IC50 for […] was calculated using pAKT measurements from 3,000 cells. […] The median fluorescence index (MFI) was then computed only from these cells and used to estimate the IC50 value. This process was repeated 100 times at each sampling level to generate a list of IC50 values. If a small number of cells is sufficiently representative of the larger population, all the IC50 values are expected to be similar to each other, and therefore the 95% confidence interval will remain small. […] For samples of 40 cells and fewer, the IC50 became increasingly inconsistent. Depending on experimental conditions, such as cell type, nodes assayed, the percentage of cells that respond to the modulator, detection methods, and the strength of the signal, the minimal number of cells needed to obtain statistically relevant measurements may vary.

[5] = system: p-ERK in monocytes; test: multiparameter phosphoflow, p-ERK stimulated by GM-CSF in monocytes from PBMCs; format: cell-based; conditions: treated PBMCs, off-target ERK/MAPK (FIG. 16)
Method: (§3) (See FIG. 11; Table 7). […] The samples are gated on cell populations.
(§4) As shown in FIGS. 16-17, the methods of the invention can also be used to identify off-target effects of drug treatment. Muliparameter phosphoflow is used to detect the effects of compounds selected from the list in Table 8 on signaling pathways other than JAK/STAT. In FIG. 16, when PBMCs are treated with the JAK/STAT inhibitor Pyridone 6 (“Jak Inhibitor I,” Calbiochem), pERK levels are reduced in monocytes. […] Thus, the methods of the invention can identify both inhibition and induction of off-target signaling pathways, in this example, the ERK/MAPK pathway. The methods of the invention can also be used to identify off-target effects of JAK/STAT inhibitors on other pathways.

[6] = system: p-ERK in B cells; test: multiparameter phosphoflow, p-ERK stimulated by CD40L in B-cells from PBMCs; format: cell-based; conditions: treated PBMCs, off-target ERK/MAPK (FIG. 16)
Method: as §3, §4

[7] = system: pNFkB65; test: multiparameter phosphoflow, NFkB signaling in stimulated B cells; format: cell-based; conditions: stimulated B cells (FIG. 17)
Method: as §4

[8] = system: CML patients; conditions: CML patients treated at the early stages of the disease; cited from earlier work

Compound: C[C@@H]1CCN(C(=O)CC#N)C[C@@H]1N(C)c1ncnc2[nH]ccc12 [CP-690550]
- potency in whole blood ([1]; 90% whole blood gated on T cells): retains a high potency
- inhibition of IL-27-induced p-Stat readout ([2]; 333 nM, 1 h pre-incubation, cells of two AML patient donors with IL-27-induced signaling): completely
- effect in cells from the third patient ([2]; AML patient cells in which IL-27 and G-CSF induced no signaling response): no effect
- inhibition of basal phosphorylation levels in the p-Stat readout ([2]; AML patient cells, IL-27 experiment (FIG. 20)): no inhibition
- inhibition of G-CSF-induced p-Stat readout ([3]; 3333 nM, 1 h pre-incubation, cells of two AML patient donors with G-CSF-induced signaling): completely
- inhibition of basal phosphorylation levels in the p-Stat readout ([3]; AML patient cells, G-CSF experiment (FIG. 21)): no inhibition

- IC50 ([4]; simulation: 10 cells sampled): 4.79 nM
- IC50 ([4]; simulation: 20 cells sampled): 79.4 nM
- IC50 ([4]; simulation: 40 cells sampled): 61.7 nM
- IC50 ([4]; simulation: 80 cells sampled): 479 nM
- IC50 ([4]; simulation: 160 cells sampled): 479 nM
- IC50 ([4]; simulation: 320 cells sampled): 490 nM
- IC50 ([4]; simulation: 640 cells sampled): 490 nM
- IC50 ([4]; simulation: 1280 cells sampled): 479 nM
- IC50 ([4]; simulation: 2560 cells sampled): 490 nM
- IC50 ([4]; simulation: MFI from 5 cells sampled from 3,000 cell data set): 0.302 nM
Compound: O=c1cc(N2CCOCC2)oc2c(-c3ccccc3)cccc12 [LY940002]

Compound: CC(C)(C)c1nc2c3cc[nH]c(=O)c3c3cc(F)ccc3c2[nH]1 [Pyridone 6]
- decrease of potency in whole blood versus PBMCs ([1]; 90% whole blood gated on T cells vs stimulated PBMCs): 70 fold
- effect on pERK levels in monocytes [5]: reduced
- effect on pERK levels in B cells [6]: does not reduce

Compound: CCOC(=O)c1cn(-c2c(F)c(F)c(C#N)c(F)c2F)c2c(F)c(F)c(F)cc2c1=O [Stat3 Inhibitor VII]
- effect on NFkB signaling, levels of pNFkB65 [7]: inhibits NFkB signaling

Compound: CC(C)(O)/C=C/C(=O)[C@](C)(O)[C@H]1[C@H](O)C[C@@]2(C)[C@@H]3CC=C4[C@@H](C=C(O)C(=O)C4(C)C)[C@]3(C)C(=O)C[C@]12C [cucurbitacin I]
- effect on pERK levels in monocytes [5]: increased
- effect on pERK levels in B cells [6]: increased

Compound: Cc1ccc(NC(=O)c2ccc(CN3CCN(C)CC3)cc2)cc1Nc1nccc(-c2cccnc2)n1 [imatinib]
- complete remission, patients [8]: 97%
